The values below come from patent publication US6514997B2, “Antipicornaviral compounds and compositions, their pharmaceutical uses, and materials for their synthesis” (Agouron Pharmaceuticals, Inc., priority 1999, dated 2003).

A short description of series [1]: Cytotoxicity (CC50) in uninfected MRC-5 cells, XTT dye reduction. Particulars: human. In kind it is cell-based, human. As for the experimental part: (§1) Echovirus type 11 (ECHO 11) was purchased from ATCC (Rockville, Md.). Virus stocks were propagated and antiviral assays were performed in MRC-5 cells (ATCC). Cells were grown in minimal essential medium with 10% fetal bovine serum (Life Technologies, Gaithersburg, Md.). The ability of the compounds of this invention to protect cells against ECHO 11 infection was measured by the XTT dye reduction method (Weislow et al., J. Natl. Cancer Inst. (1989), vol. 81, 577-586). MRC-5 cells were infected with ECHO 11 at an m.o.i. of 0.003 or 0.004, respectively, or mock-infected with medium only. Infected or uninfected cells were added at 1×10^4 cells per well and incubated with appropriate concentrations of compound. Four days later, XTT/PMS was added to test plates, and the amount of formazan produced was quantified spectrophotometrically at 450/650 nm. […] The therapeutic index (TI) was calculated by dividing the CC50 by the EC50. Activity of the compounds against enterovirus type 70 (EV 70) may be measured by the same assay as described above in this section. Enterovirus type 70 (EV 70) may be obtained from the American Type Culture Collection ATCC (Rockville, Md.).

Another series relates to MRC-5 cells. Described as above. In kind it is cell-based, human. As for the experimental part:
as §1

The target of series [2] is T1, Recombinant rhinovirus 3C protease, serotype 14 (Human rhinovirus 14, UniProt P03303).
T1 construct: Recombinant rhinovirus 3C proteases; made in house
Description: Inhibition of rhinovirus 3C protease (FRET assay, kobs/[I]), serotype 14. In kind it is biochemical. Particulars: pH 7.6, read-out: kobs/[I] (3C protease inhibition activity). In outline:
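kobs/[I] values came from progress curves of reactions started by adding 50-100 nM protease to buffer (50 mM tris pH 7.6, 1 mM EDTA, 2% DMSO) containing compound and ~1 μM quenched DABCYL-EDANS substrate. Rising EDANS fluorescence reported cleavage.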

In series [3] the test system is enterovirus type 70 (EV 70). Description: Anti-enteroviral cell culture assay (XTT, EC50), EV 70. In kind it is cell-based, enterovirus 70 in MRC-5 cells. The note with it: Enterovirus D. As for the experimental part: (§2) Anti-Echoviral and Anti-Enteroviral Cell Culture Assays
as §1

A short description of series [4]: Cytotoxicity (CC50) in mock-infected H1-HeLa cells, XTT dye reduction. It is filed as cell-based, human. The note with it: human. In outline: (§3)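 XTT dye reduction (formazan, 450/650 nm) in H1-HeLa cells, mock-infected, gave CC50.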
A further series relates to HRV-14. Description: Antirhinoviral H1-HeLa cell culture assay (XTT cell protection, EC50), HRV-14. In kind it is cell-based, human rhinovirus (HRV) serotype-14 in H1-HeLa cells. In outline:
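XTT dye reduction (450/650 nm) measured survival of H1-HeLa cells two days after HRV-14 infection at m.o.i. 0.13 in the presence of compound, giving EC50. The therapeutic index is CC50 divided by EC50.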

In series [5] the test system is Coxsackievirus type A-21 (CAV-21). Nature of the series: Anticoxsackieviral cell culture assay (XTT, EC50), CAV-21. In kind it is cell-based, coxsackievirus A-21 in H1-HeLa cells. How it is done: (§4) Anticoxsackieviral Cell Culture Assay:
(§5) Coxsackievirus types A-21 (CAV-21) and B3 (CVB3) were purchased from American Type Culture Collection (ATCC, Rockville, Md.). Virus stocks were propagated and antiviral assays were performed in H1-HeLa cells (ATCC). Cells were grown in minimal essential medium with 10% fetal bovine serum (Life Technologies, Gaithersburg, Md.). The ability of the compounds of this invention to protect cells against either CAV-21 or CVB3 infection was measured by the XTT dye reduction method. This method is described in Weislow et al., J. Natl. Cancer Inst. (1989), vol. 81, 577-586. H1-HeLa cells were infected with CAV-21 or CVB3 at a multiplicity of infection (m.o.i.) of 0.025 or 0.075, respectively, or mock-infected with medium only. H1-HeLa cells were plated at 4×10^4 cells per well in a 96-well plate and incubated with appropriate concentrations of the test compound. One day (CVB3) or two days (CAV-21) later, XTT/PMS was added to test plates and the amount of formazan produced was quantified spectrophotometrically at 450/650 nm. […] The therapeutic index (TI) was calculated by dividing the CC50 by the EC50.

The test system of series [6] is Coxsackievirus type B3 (CVB3). Nature of the series: Anticoxsackieviral cell culture assay (XTT, EC50), CVB3. It is filed as cell-based, coxsackievirus B3 in H1-HeLa cells. How it is done:
as §4, §5

Series [7] has as its system Echovirus type 11 (ECHO 11). Nature of the series: Anti-echoviral cell culture assay (XTT, EC50), ECHO 11. In kind it is cell-based, echovirus 11 in MRC-5 cells. The note with it: Enterovirus B. How it is done: as §2, §1
Series [8] deals with strains of human rhinovirus (HRV). Description: Antirhinoviral H1-HeLa cell culture assay (XTT cell protection, EC50), other HRV strains. It is filed as cell-based, human rhinovirus in H1-HeLa cells. The note with it: Human rhinovirus sp., read-out: EC50. In outline: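 Protection of H1-HeLa cells from rhinovirus was scored two days post-infection via XTT dye reduction read at 450/650 nm, alongside mock-infected cells for toxicity. CC50/EC50 gives the therapeutic index.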

A further series concerns H1-HeLa cells. Nature of the series: Cytotoxicity (CC50) in mock-infected H1-HeLa cells, XTT dye reduction. It is filed as cell-based, human. In outline: as §3
Setting [9] is: MRC-5 cells, uninfected (mock-infected), line of ECHO-11.
Where [10] appears, read: H1-HeLa cells, mock-infected, line of HRV-14.
Setting [11] is: H1-HeLa cells, uninfected (mock-infected), line of CAV-21.
[12] abbreviates: H1-HeLa cells, uninfected (mock-infected), line of CVB3.
The mark [13] stands for this setting: Rhinovirus B, HRV14, H1-HeLa, HRV-14, read-out: EC50.
[14] abbreviates: Coxsackievirus, CAV-21, read-out: EC50.
Where [15] appears, read: H1-HeLa cells, mock-infected, HRV-14.
The mark [16] stands for this setting: uninfected (mock-infected) MRC-5 cells, ECHO-11 (EV-11) row.
[17] abbreviates: mock-infected (uninfected) H1-HeLa cells, CAV-21.
The mark [18] stands for this setting: mock-infected (uninfected) H1-HeLa cells, CVB3.
The mark [19] stands for this setting: CVB3, H1-HeLa cells, read-out: EC50.

Where two headings read alike, the source gives them in different places.

T1 sequence (P03303 1538-1719): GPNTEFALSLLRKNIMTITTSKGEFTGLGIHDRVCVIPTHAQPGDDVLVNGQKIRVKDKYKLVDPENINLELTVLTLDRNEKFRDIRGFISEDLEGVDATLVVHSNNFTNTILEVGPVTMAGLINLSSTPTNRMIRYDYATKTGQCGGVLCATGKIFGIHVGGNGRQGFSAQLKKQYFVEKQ

In [1] (setting [9]), `CCOC(=O)/C=C/[C@H](CCC(N)=O)NC(=O)[C@H](Cc1ccccc1)n1cccc(NC(=O)OCc2ccccc2)c1=O` [Compound 1, trans-(2′S,4S)-4-[2′-(3″-Benzyloxycarbonylamino-2″-oxo-2″H-pyridin-1″-yl)-3′-phenylpropionylamino]-6-carbamoylhex-2-enoic Acid Ethyl Ester] registered a CC50 at 4 days of more than 10000 nM. This compound yielded a CC50 in the series on MRC-5 cells (line of ENT-70) of more than 10000 nM. The kinact/KI in series [2] (HRV-14) turned out to be 114000 M⁻¹ s⁻¹. In addition, the EC50 worked out at 12 nM in series [3] (ENT-70); 33 nM in the series with HRV-14 (setting [13]); 1480 nM in series [5] (setting [14]); 539 nM in [6] (CVB3, read-out: EC50); 160 nM in series [7] (ECHO-11, read-out: EC50). Moreover, the results for the CC50 at 2 days in [4] (setting [10]) and in [4] (setting [11]) were 50100 nM and more than 10000 nM, respectively. This compound yielded a half-maximal cytotoxic concentration (CC50) at 1 day in series [4] (setting [12]) of more than 10000 nM.

On to `CCOC(=O)/C=C\[C@H](CCC(N)=O)NC(=O)[C@H](Cc1ccccc1)n1cccc(NC(=O)c2cc(C)on2)c1=O` [Compound 5, trans-(2′S,4S)-6-Carbamoyl-4-(2′-{3″-[(5′″-methylisoxazole-3′″-carbonyl)amino]-2″-oxo-2″H-pyridin-1″-yl}-3′-phenylpropionylamino)hex-2-enoic Acid Ethyl Ester], for which, in [1] (setting [9]), the CC50 at 4 days is more than 10000 nM. In the series with MRC-5 cells (line of ENT-70), this compound came in with a CC50 of more than 10000 nM. The kinact/KI in [2] (HRV-14) came to 329000 M⁻¹ s⁻¹. Besides, the concentration for a half-maximal effect (EC50) in series [3] (ENT-70) was 18 nM; with HRV-14 (setting [13]), 16 nM; in series [5] (setting [14]), 1390 nM; in [6] (CVB3, read-out: EC50), 577 nM; in series [7] (ECHO-11, read-out: EC50), 54 nM. The 50% cytotoxic concentration (CC50) at 2 days in [4] (setting [10]) and in series [4] (setting [11]) was more than 10000 nM in each case. The CC50 at 1 day in [4] (setting [12]) was more than 10000 nM.

As to `CCOC(=O)/C=C/[C@H](CCC(N)=O)NC(=O)[C@H](Cc1ccccc1)n1cccc(NC(=O)C2CCCC2)c1=O` [Compound 6, trans-(2′S,4S)-6-Carbamoyl-4-{2′-[3″-cyclopentanecarbonylamino-2″-oxo-2″H-pyridin-1″-yl]-3′-phenylpropionylamino}hex-2-enoic Acid Ethyl Ester], the CC50 at 4 days in series [1] (setting [9]) was more than 10000 nM. Moreover, the CC50 with MRC-5 cells (line of ENT-70) was more than 10000 nM. The kinact/KI in [2] (HRV-14) is 37400 M⁻¹ s⁻¹. For the same compound, the concentration giving a half-maximal response (EC50) in series [3] (ENT-70) was 61 nM; with HRV-14 (setting [13]), 34 nM; in [5] (setting [14]), 4680 nM; in series [6] (CVB3, read-out: EC50), 2500 nM; in [7] (ECHO-11, read-out: EC50) it was 346 nM. The CC50 at 2 days in series [4] (setting [10]) and in [4] (setting [11]) was more than 10000 nM throughout. Moreover, the half-maximal cytotoxic concentration (CC50) at 1 day in series [4] (setting [12]) was more than 10000 nM.

Take `Cc1cc(C(=O)Nc2cccn([C@@H](Cc3ccc(F)cc3)C(=O)N[C@H](/C=C/C(=O)OC(C)C)C[C@@H]3CCNC3=O)c2=O)no1` [Compound 67, trans-(2′S,3″″″S)-4-[3′-(4″-Fluorophenyl)-2′-(3′″-{[1″″-(5′″″-methylisoxazol-3′″″-yl)methanoyl]amino}-2″″-oxo-2″″H-pyridin-1″″-yl)propanoylamino]-5-(2″″″-oxopyrrolidin-3″″″-yl)pent-2-enoic Acid Isopropyl Ester]: the EC50 turned out to be 19 nM in series [8] (HRV3, H1-HeLa, HRV-3); 162 nM in series [8] (HRV9, H1-HeLa, HRV-9); 162 nM in series [8] (HRV13, H1-HeLa, HRV-13); 33 nM in series [8] (HRV16, H1-HeLa, HRV-16); 38 nM in series [8] (HRV39, H1-HeLa, HRV-39); 48 nM in series [8] (HRV78, H1-HeLa, HRV-78). The compound further came in with a concentration for a half-maximal effect (EC50) in the series on HRV-14 (Rhinovirus B, HRV14, H1-HeLa) of 57 nM. For the same compound, the kinact/KI in [2] (HRV-14 3C protease) came to 462000 M⁻¹ s⁻¹. Also, the half-maximal cytotoxic concentration (CC50) in the series with H1-HeLa cells (HRV-3), in the series on H1-HeLa cells (HRV-9), in the series on H1-HeLa cells (HRV-13), in the series on H1-HeLa cells (HRV-16), in the series on H1-HeLa cells (HRV-39) and in the series on H1-HeLa cells (HRV-78) was more than 10000 nM each time. Also, the cytotoxic concentration (CC50) at 2 days in [4] (setting [15]) was more than 10000 nM.

Compound `CCOC(=O)c1ccc(OCCC2CCN(c3ccc(C)nn3)CC2)cc1` [Pirodavir, reference compound] returned a CC50 at 4 days in series [1] (setting [16]) of more than 10000 nM. Further, the CC50 with MRC-5 cells (ENT-70 row) is more than 10000 nM. Besides, the EC50 was 60 nM in series [3] (MRC5, ENT-70, MRC-5 cells); 30 nM with HRV-14 (setting [13]); more than 100000 nM in [5] (Coxsackievirus, CAV-21, H1-HeLa cells, read-out: EC50); more than 100000 nM in series [6] (setting [19]); 3700 nM in series [7] (MRC5, ECHO-11 (also printed EV-11), MRC-5 cells, read-out: EC50). The CC50 at 2 days in series [4] (setting [15]) was more than 10000 nM; in [4] (setting [17]), more than 100000 nM. Besides, the CC50 at 1 day in series [4] (setting [18]) was more than 100000 nM.

In series [1] (setting [16]), `Cc1cc(CCCOc2c(C)cc(-c3noc(C(F)(F)F)n3)cc2C)on1` [Pleconaril, reference compound] returned a CC50 at 4 days of more than 10000 nM. The CC50 at 2 days in series [4] (setting [15]) and in series [4] (setting [17]) was more than 10000 nM each time. In series [4] (setting [18]), the cytotoxic concentration (CC50) at 1 day was more than 10000 nM. Further, the concentration for a half-maximal effect (EC50) with HRV-14 (setting [13]) is 10 nM; in series [5] (Coxsackievirus, H1-HeLa) it was 90 nM; in series [6] (H1-HeLa), more than 10000 nM; in series [7] (MRC5), 160 nM.

On to `Cc1cc(CCCCCOc2c(Cl)cc(C3=NCCO3)cc2Cl)on1` [WIN 54954, reference compound], for which the results for the CC50 in the series on H1-HeLa cells (CAV-21), in the series with H1-HeLa cells (CVB3) and in the series on H1-HeLa cells (HRV-14) were more than 100000 nM, more than 100000 nM and more than 63000 nM, respectively. The EC50 with HRV-14 (HRV-14, read-out: EC50) was 2130 nM; in series [5] (CAV-21, H1-HeLa cells, read-out: EC50) it was more than 100000 nM; in series [6] (setting [19]), more than 100000 nM.
